pIC50: −log10 of the molar value. The source made the active and inactive calls. No rule for the calls is given here.
Legend:
[1] = vps1Δ single mutant yeast growth suppression – S. cerevisiae, background strain comparison, dose response (AID 790); conditions: S. cerevisiae vps1Δ mutant growth inhibition; measured here: background strain growth inhibition
[2] = tested on: S. cerevisiae vps1Δ mutant growth inhibition; test: as above

Row | SMILES | pIC50 [1] | IC50 [2] | pIC50 [2]
1 | O=C(NCc1ccco1)C(c1cccs1)N(C(=O)Cc1cccs1)c1ccccc1 (stereo unspecified) | < 5.00 | > 10 µM (inactive) | 
2 | Nc1c(C(=O)OCC2CCCO2)c2nc3ccccc3nc2n1-c1ccc2c(c1)OCCO2 (stereo unspecified) | < 5.00 | > 10 µM (inactive) | 
3 | O=C(Nc1nnc(-c2ccccc2)o1)c1ccc(Cl)cc1 | 6.19 |  | 6.38
4 | Cc1ccnc(N2C(=O)c3cccc4c([N+](=O)[O-])ccc(c34)C2=O)c1 | 5.37 |  | 5.54
5 | CC1=CC(C)(C)Nc2ccc(OC(=O)CN3C(=O)c4cccc5cccc(c45)C3=O)cc21 | < 5.00 | > 10 µM (inactive) | 
6 | CCOC(=O)C(C)Oc1ccc2c(C)cc(=O)oc2c1C(C)=O (stereo unspecified) | < 5.00 | > 10 µM (inactive) | 
7 | Cc1ccc(-c2csc3nnc(SCC(=O)Nc4cccc(C)n4)n23)cc1 | < 5.00 | > 10 µM (inactive) | 
8 | O=C(C1COc2ccccc2O1)N1CCN(Cc2ccc3c(c2)OCO3)CC1 (stereo unspecified) | < 5.00 | > 10 µM (inactive) | 
9 | O=Cc1cc2ccccc2nc1SCc1ccc(Cl)cc1 | < 5.00 | > 10 µM (inactive) | 
10 | NC(=O)c1ccsc1NC(=O)c1nc(-c2ccccc2)n(-c2ccccc2)n1 | < 5.00 | > 10 µM (inactive) | 
11 | Cn1c(=O)cc(NCc2ccccc2)[nH]c1=O | < 5.00 | > 10 µM (inactive) | 
12 | CCCCOc1ccc(-c2ncc(C(=O)O)c(C)n2)cc1 | < 5.00 | > 10 µM (inactive) | 
13 | COc1ccc(Cl)cc1NC(=O)C(C)N1CCN(C/C=C/c2ccccc2)CC1 (stereo unspecified) | 4.82 | > 10 µM (inactive) | 
14 | CC(NC(=O)CSc1nc2c(cc1C#N)CN(C)CC2)c1ccccc1 (stereo unspecified) | < 5.00 | > 10 µM (inactive) | 
15 | C/C(CCC12CC3CC(CC(C3)C1)C2)=N\NC(N)=S | 5.28 | 12.7 µM (inactive) | 
16 | Cc1cccc(-c2nnc(-c3cccc(NC(=O)Cc4cccs4)c3)o2)c1 | 4.82 | > 10 µM (inactive) | 
17 | Cc1cc([N+](=O)[O-])c(-c2ccc(/C=N/n3cnnc3)o2)cc1Cl | 6.87 |  | 6.94
18 | Cc1cc(C)n2nc(C(=O)NCc3ccccc3)cc2n1 | < 5.00 | > 10 µM (inactive) | 
19 | Cc1cc(=O)oc2c(CN3CCCCC3)c(O)c(Cl)cc12 | < 5.00 | > 10 µM (inactive) | 
20 | O=S(=O)(NCC(c1cccnc1)N1CCN(c2ccccc2)CC1)c1cccs1 (stereo unspecified) | < 5.00 |  | 4.69
21 | CCN(CC)c1nc2cc(OC)ccc2cc1C#N | < 5.00 | > 10 µM (inactive) | 
22 | Cc1cc(=O)[nH]c(SCC(=O)c2ccc(C)c(C)c2)n1 | 5.64 |  | 6.05
23 | COc1ccc(C(=O)Nc2ccc(Cl)cc2C(=O)N2CCCC(C)C2)cc1 (stereo unspecified) | < 5.00 | > 10 µM (inactive) | 
24 | CCN(CC)CCCN(Cc1cc2cc3c(cc2[nH]c1=O)OCCO3)C(=O)Nc1ccc(F)cc1 | < 5.00 | > 10 µM (inactive) | 
25 | CCn1c(=O)[nH]c2cc(C(=O)N3CCN(c4ccccc4)CC3)ccc2c1=O | < 5.00 | > 10 µM (inactive) | 
26 | CCc1cc(=O)oc2cc(C)c(CN3CCCC(C)C3)c(O)c12 (stereo unspecified) | < 5.00 | > 10 µM (inactive) | 
27 | CC1CCCCN1CCNC(=O)Cn1nc(-c2ccccc2)ccc1=O (stereo unspecified) | < 5.00 | > 10 µM (inactive) | 

Row | SMILES | pIC50 [1] | IC50 [2] | pIC50 [2]
28 | CC(C)(C)n1nnnc1CN(Cc1cccnc1)Cc1ccccc1Cl | < 5.00 | > 10 µM (inactive) | 
29 | CCc1ccc(C(=O)/C=C/c2ccc([N+](=O)[O-])o2)cc1 | 4.68 |  | 5.67
30 | N=c1c2c(-c3ccccc3)c(-c3ccccc3)n(Cc3ccco3)c2ncn1Cc1ccco1 | 4.67 | > 10 µM (inactive) | 
31 | CCOc1ccc(NC(=O)C/C(N)=N/O)cc1 | < 5.00 | > 10 µM (inactive) | 
32 | O=C(OCn1ncc(Cl)c(Cl)c1=O)c1cccc(C(F)(F)F)c1 | 5.45 |  | 5.48
33 | CCN1C(=O)c2ccc(C(=O)NCc3ccccc3)cc2C1=O | < 5.00 | > 10 µM (inactive) | 
34 | CCOC(=O)c1ccc(NC(=O)c2ccc(CN3CCOCC3)cc2)cc1 | < 5.00 | > 10 µM (inactive) | 
35 | Cc1ccc(SC(C)C(=O)Nc2ncn[nH]2)cc1 (stereo unspecified) | < 5.00 | > 10 µM (inactive) | 
36 | CCC(C)(C)n1nnnc1C(c1cc2cc3c(cc2[nH]c1=O)OCO3)N1CCN(C)CC1 (stereo unspecified) | < 5.00 | > 10 µM (inactive) | 
37 | O=C(N/N=C/c1ccc(OC(=O)c2ccccc2)cc1)c1ccc(CN2CCOCC2)cc1 | < 5.00 | > 10 µM (inactive) | 
38 | COc1cccc(NC(=O)c2ccc(CN3CCN(c4ccccc4)CC3)cc2)c1 | < 5.00 | > 10 µM (inactive) | 
39 | CC(C)COC(=O)c1ccc2c(c1O)C(=O)c1ccccc1C2=O | < 5.00 |  | 4.64
40 | Cc1c(C)c2cc(Cl)c(O)c(CN3CCN(C)CC3)c2oc1=O | < 5.00 | > 10 µM (inactive) | 
41 | CCc1cc2c(=O)c(Oc3ccccc3F)c(C)oc2c(CN(C)C)c1O | < 5.00 | > 10 µM (inactive) | 
42 | Clc1ccc(-c2n[nH]c3c2CCC3)c(Cl)c1 | 6.29 |  | 6.66
43 | Cc1ccc(C(C)C)c(OCCCN2CC(C)OC(C)C2)c1 (stereo unspecified) | < 5.00 | > 10 µM (inactive) | 
44 | Cc1cccc(-n2c(N)c(C(=O)NCCN3CCOCC3)c3nc4ccccc4nc32)c1 | < 5.00 | > 10 µM (inactive) | 
45 | CCOC(=O)C(NC(C)=O)(Nc1ccc(S(=O)(=O)Nc2onc(C)c2C)cc1)C(F)(F)F (stereo unspecified) | < 5.00 | > 10 µM (inactive) | 
46 | C=CCc1ccccc1OCC(O)CN1CCN(Cc2ccc3c(c2)OCO3)CC1 (stereo unspecified) | < 5.00 | > 10 µM (inactive) | 
47 | Cc1ccc(CSc2nc3ccccc3cc2C=O)cc1 | 5.68 |  | 5.70
48 | Cc1ccc(Cl)c(OCCCCN(C)Cc2ccccc2)c1 | < 5.00 | > 10 µM (inactive) | 
49 | O=C(COc1ccc(Cl)cc1)Nc1ccc(N2CCN(C(=O)c3ccco3)CC2)cc1 | < 5.00 | > 10 µM (inactive) | 
50 | CCOCCCNC(=O)C1CCN(C(=O)N(C)C)CC1 | < 5.00 | > 10 µM (inactive) | 
51 | c1ccc(-c2ccc(-c3cnc4n3CCCCC4)cc2)cc1 | < 5.00 | > 10 µM (inactive) | 
52 | COc1cc(CN2CCN(c3ccc(C)cc3)CC2)cc([N+](=O)[O-])c1O | < 5.00 | > 10 µM (inactive) | 
53 | Cc1ccc(NS(=O)(=O)c2cc(C(=O)N3CCOCC3)ccc2C)cc1 | < 5.00 | > 10 µM (inactive) | 

From PubChem BioAssay AID790 (SRMLSC, 2007)
